We go through nine molecules from patent US10125129B2 (priority 2016, dated 2018).

Some results are limits rather than exact numbers.

T1 sequence (P35372 whole entry): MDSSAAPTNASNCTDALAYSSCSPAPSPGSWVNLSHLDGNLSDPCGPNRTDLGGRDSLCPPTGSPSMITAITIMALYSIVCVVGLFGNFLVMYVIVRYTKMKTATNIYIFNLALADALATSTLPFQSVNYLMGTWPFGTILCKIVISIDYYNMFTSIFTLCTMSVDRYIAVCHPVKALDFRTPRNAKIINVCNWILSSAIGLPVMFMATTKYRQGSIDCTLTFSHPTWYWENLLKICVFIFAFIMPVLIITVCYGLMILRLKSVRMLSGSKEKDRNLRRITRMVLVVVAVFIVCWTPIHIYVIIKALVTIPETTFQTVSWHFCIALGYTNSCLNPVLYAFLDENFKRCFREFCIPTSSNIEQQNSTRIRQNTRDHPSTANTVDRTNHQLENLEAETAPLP

One experiment addresses T1, μ opioid receptor (MOR) (Homo sapiens, UniProt P35372).
T1 construct: expressed in transfected cells
Briefly: cell-based. The following applies: EC50. In kind it is cell-based.
Molecule `COC(=O)[C@@H]1C=C(OC(=O)c2cnco2)C(=O)[C@H]2[C@@]1(C)CC[C@H]1C(=O)O[C@H](c3ccoc3)C[C@]21C` [Table 3 Entry 10, (2S,4aR,6aR,7R,10aR,10bR)-2-(Furan-3-yl)-7-(methoxycarbonyl)-6a,10b-dimethyl-4,10-dioxo-2,4,4a,5,6,6a,7,10,10a,10b-decahydro-1H-benzo[f]isochromen-9-yl oxazole-5-carboxylate] showed an EC50 of over 10 µM.
On the same count and under the same terms, next, `COC(=O)[C@@H]1C=C(OC(=O)c2cncs2)C(=O)[C@H]2[C@@]1(C)CC[C@H]1C(=O)O[C@H](c3ccoc3)C[C@]21C` [Table 3 Entry 8, (2S,4aR,6aR,7R,10aR,10bR)-2-(Furan-3-yl)-7-(methoxycarbonyl)-6a,10b-dimethyl-4,10-dioxo-2,4,4a,5,6,6a,7,10,10a,10b-decahydro-1H-benzo[f]isochromen-9-yl thiazole-5-carboxylate]: over 10 µM.

The experiment is the same for the next values; noted with them: Series 1 EC50.
Turning to `COC(=O)[C@@H]1C[C@H](OC(=O)c2ccccc2[N+](=O)[O-])C(=O)[C@H]2[C@@]1(C)CC[C@H]1C(=O)O[C@H](c3ccoc3)C[C@]21C` [Series 1 Entry 2], the EC50 is 2 ± 1 µM.
With `COC(=O)[C@@H]1C[C@H](OC(=O)c2ccncc2)C(=O)[C@H]2[C@@]1(C)CC[C@H]1C(=O)O[C@H](c3ccoc3)C[C@]21C` [Series 1 Entry 19, (2S,4aR,6aR,7R,9S,10aS,10bR)-2-(furan-3-yl)-7-(methoxycarbonyl)-6a,10b-dimethyl-4,10-dioxododecahydro-2H-benzo[f]isochromen-9-yl isonicotinate], it took 0.34 ± 0.01 µM to reach a half-maximal effect (EC50).
Same read-out and setting: next, `COC(=O)[C@@H]1C[C@H](OC(=O)c2cccs2)C(=O)[C@H]2[C@@]1(C)CC[C@H]1C(=O)O[C@H](c3ccoc3)C[C@]21C` [Series 1 Entry 20]: 0.33 ± 0.07 µM.

Staying with this experiment, now noted: Series 2 EC50.
`COC(=O)[C@@H]1C=C(OC(=O)c2cccc(C)c2)C(=O)[C@H]2[C@@]1(C)CC[C@H]1C(=O)O[C@H](c3ccoc3)C[C@]21C` [Series 2 Entry 12, (2S,4aR,6aR,7R,10aR,10bR)-Methyl 2-(furan-3-yl)-6a,10b-dimethyl-9-((3-methylbenzoyl)oxy)-4,10-dioxo-2,4,4a,5,6,6a,7,10,10a,10b-decahydro-1H-benzo[f]isochromene-7-carboxylate]: the EC50 came out at 0.16 ± 0.03 µM.
The molecule `COC(=O)[C@@H]1C=C(OC(=O)c2ccccn2)C(=O)[C@H]2[C@@]1(C)CC[C@H]1C(=O)O[C@H](c3ccoc3)C[C@]21C` [Series 2 Entry 17, (2S,4aR,6aR,7R,10aR,10bR)-2-(Furan-3-yl)-7-(methoxycarbonyl)-6a,10b-dimethyl-4,10-dioxo-2,4,4a,5,6,6a,7,10,10bdecahydro-1H-benzo[f]isochromen-9-yl picolinate] had an EC50 of 0.41 ± 0.05 µM.
Turning to `COC(=O)[C@@H]1C=C(OC(=O)c2ccc(Cl)cc2)C(=O)[C@H]2[C@@]1(C)CC[C@H]1C(=O)O[C@H](c3ccoc3)C[C@]21C` [Series 2 Entry 7, (2S,4aR,6aR,7R,10aR,10bR)-Methyl 9-((4-chlorobenzoyl)oxy)-2-(furan-3-yl)-6a,10b-dimethyl-4,10-dioxo-2,4,4a,5,6,6a,7,10,10a,10b-decahydro-1H-benzo[f]isochromene-7-carboxylate], the EC50 worked out at 0.029 ± 0.008 µM.
As for `COC(=O)[C@@H]1C=C(OC(=O)c2cccs2)C(=O)[C@H]2[C@@]1(C)CC[C@H]1C(=O)O[C@H](c3ccoc3)C[C@]21C` [Series 2 Entry 20, (2S,4aR,6aR,7R,6aR,7R,10aR,10bR)-Methyl 2-(furan-3-yl)-6a,10bdimethyl-4,10-dioxo-9-((thiophene-2-carbonyl)oxy)-2,4,4a,5,6,6a,7,10,10a,10b-decahydro-1H-benzo[f]isochromene-7-carboxylate], it took 0.0014 ± 0.0008 µM to reach a half-maximal effect (EC50).

A word on the EC50: it is the concentration at which the effect is half-maximal. High values mean a less potent agent, low ones a more potent agent.
